How the values were obtained:
[1] = target: Tumor necrosis factor (Homo sapiens, UniProt P01375); experiment: TNFα Binding Assay
Experimental: Table 15: TNFα binding was measured in black 96-well plates using a time-resolved FRET assay using a previously described fluorescence acceptor TNFα probe (Xiao et al J. Med. Chem. 2020). Biotinylated TNFα was purchased from Acro Biosystems. Binding reactions were conducted in 20 mM Hepes (pH 7.5) 10 mM MgCl2 0.015% Tween-20 0.05 mg/ml BSA 2% DMSO with 1 nM TNFα 0.5 nM Streptavidin-Tb and 80 nM probe. Test compounds were resuspended in DMSO and 3-fold serial dilutions were made at 100× final concentrations. Fluorescence was measured using λex=340 nm, λem=490, 520 nm on an SpectraMax M5e plate reader (Molecular Devices) after 16 hr incubation time. Dose responses were conducted in duplicate and normalized to the response with DMSO (high) and 100 nM (R)-3-(1-((3-chloro-7-fluoro-6-(2-(2-hydroxypropan-2-yl)pyrimidin-5-yl)-2-methyl-1,5-naphthyridin-4-yl)amino)ethyl)-4-fluorobenzonitrile (low) on each plate. IC50 values were determined by fitting to 4-parameter curves in GraphPad Prism.

[2] = target: T1, Folate receptor beta (Homo sapiens, UniProt P14207); experiment: Folate Receptor Binding Assay
T1 sequence (P14207 whole entry): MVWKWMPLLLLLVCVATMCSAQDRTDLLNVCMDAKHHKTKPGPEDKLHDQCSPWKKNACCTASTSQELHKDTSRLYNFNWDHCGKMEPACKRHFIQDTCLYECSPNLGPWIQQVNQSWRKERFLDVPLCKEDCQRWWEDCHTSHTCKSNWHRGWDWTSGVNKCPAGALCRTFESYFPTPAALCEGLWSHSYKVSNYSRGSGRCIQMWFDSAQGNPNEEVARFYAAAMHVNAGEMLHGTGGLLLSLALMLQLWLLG
Experimental: Table 15: Folate receptor binding was measured in black 96-well plates using a fluorescence polarization assay. A fluorescent probe consisting of a folate analog linked to Cy5 (FR-Cy) was custom synthesized. Test compounds were resuspended in DMSO and 3-fold serial dilutions were made from 300-0.015 μM (100× final concentrations). Binding reactions were conducted in 200 μl final volume in 20 mM Hepes (pH 7.5) 250 mM NaCl 0.0150 Tween-20 1% DMSO with 2.5 nM folate receptor beta (Acro Biosystems) and 2 nM probe. Fluorescence polarization was measured using λex=620 nm, λem=688 nm on an Envision plate reader (Perkin Elmer) after 2 hr incubation time. Dose responses were conducted in duplicate and normalized to the response with DMSO (high) and 1 μM folic acid (low) on each plate. IC50 values were determined by fitting to 4-parameter curves in GraphPad Prism.

[3] = target: T1, Folate receptor beta; experiment: Folate Receptor SPR Assay
Experimental: Table 16: Folate receptor SPR binding assays were conducted on a Biacore 8K instrument (Cytiva) using biotinylated folate receptor beta (Acro Biosystems). Briefly, folate receptor was immobilized at -550 RU on a streptavidin chip (Cytiva) in 10 mM HEPES pH 7.5, 150 mM NaCl, 0.05% Tween 20. Multi-cycle kinetic studies were conducted with 8 compound concentrations using 2-fold dilutions in 10 mM HEPES pH 7.5, 150 mM NaCl, 0.05 % Tween 20, 2% DMSO at 25° C. A flow rate or 75 μl/mmn with an association time of 120 s and a dissociation time of 600 s were used. Surfaces were regenerated with 4 M MgCl2 at 30 μl/min for 30 s. Data were fit to a 1:1 model to determine the reported binding parameters.

Chain of Tumor necrosis factor (P01375 whole entry): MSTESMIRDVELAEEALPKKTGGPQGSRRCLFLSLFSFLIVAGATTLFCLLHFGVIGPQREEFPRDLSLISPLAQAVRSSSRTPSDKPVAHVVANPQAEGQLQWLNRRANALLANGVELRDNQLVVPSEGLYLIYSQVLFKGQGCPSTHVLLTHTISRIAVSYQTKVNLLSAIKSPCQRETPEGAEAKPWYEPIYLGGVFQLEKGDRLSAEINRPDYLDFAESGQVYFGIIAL

`Cc1nc2cc(F)c(-c3cnc(N4CCN(C(=O)COCCn5cc(COCCOCCOCCOCCNC(=O)CC[C@H](NC(=O)[C@H]6CC[C@H](NCc7cnc8nc(N)nc(O)c8n7)CC6)C(=O)O)nn5)CC4)nc3)nc2c(N[C@H](C)c2ccccc2F)c1Cl` [US20250127913, Compound I-91] showed an IC50 [1] of 17.5 nM, an IC50 [2] of 138 nM and a Kd [3] of 0.201 nM.
